From US6114310A, “Efflux pump inhibitors” (priority 1998, dated 2000)

System: Pseudomonas aeruginosa PAM1001
Assay: microbe, parasite or virus in culture
Format: cell-based
Method: The activity of efflux pump inhibitors (EPI) in combination with fluoroquinolones, such as levofloxacin, is assessed by the checkerboard assay (Antimicrobial Combinations. In Antibiotics in Laboratory Medicine, Ed. Victor Lorian, M. D., Fourth edition, 1996, pp 333-338) using broth microdilution method performed as recommended by the NCCLS (National Committee for Clinical Laboratory Standards (NCCLS). 1997. Methods for Dilution of Antimicrobial Susceptibility Tests for Bacteria That Grow Aerobically--Fourth Edition; Approved Standard. NCCLS Document M7-A4, Vol 17 No.2). The test organism used is Pseudomonas aeruginosa PAM1001.
In this assay, multiple dilutions of two drugs, namely the EPI and levofloxacin, are being tested, alone and in combination, at concentrations equal to, above and below their respective minimal inhibitory concentrations (MICs).
Stock solutions are further diluted, according to the needs of a particular assay, in Mueller Hinton Broth (MHB). Stock solution can be stored at -80° C. Quinolones are solubilized according to the instructions of the manufacturers, at a concentration of 1 mg/ml. They are then further diluted in MHB. Stock solution can be stored at -80° C.
The checkerboard assay is performed in microtiter plates. Levofloxacin is diluted in the x axis, each column containing a single concentration of levofloxacin. The EPI is diluted in the y axis, each row containing an equal concentration of EPI. The result of these manipulations is that each well of the microtiter plate contains a unique combination of concentrations of the two agents. Each EPI are tested independently.
The assay is performed in MHB with a final bacterial inoculum of 5×10^5 CFU/ml (from an early-log phase culture). Microtiter plates are incubated during 20 h at 35° C. and are read using a microtiterplate reader (Molecular Devices) at 650 nm as well as visual observation using a microtiterplate reading mirror.

[1] = Table 1, EPI Conc. μg/ml (number not given; column between 10 and 40 μg/ml)
[2] = Table 2, EPI Conc. μg/ml (number not given; column between 10 and 40 μg/ml)
[3] = Table 3, EPI Conc. μg/ml (number not given; column between 10 and 40 μg/ml)
[4] = Table 4, EPI Conc. μg/ml (number not given; column between 10 and 40 μg/ml)

Row | Substance | Levofloxacin MIC Against P. aeruginosa PAM1001 in Presence of Efflux Pump Inhibitor (EPI), Minimum Inhibitory Concentration (Table 1, EPI Conc. 0 μg/ml) | Levofloxacin MIC Against P. aeruginosa PAM1001 in Presence of Efflux Pump Inhibitor (EPI), Minimum Inhibitory Concentration (Table 1, EPI Conc. 0.625 μg/ml) | Levofloxacin MIC Against P. aeruginosa PAM1001 in Presence of Efflux Pump Inhibitor (EPI), Minimum Inhibitory Concentration (Table 1, EPI Conc. 5 μg/ml) | Levofloxacin MIC Against P. aeruginosa PAM1001 in Presence of Efflux Pump Inhibitor (EPI), Minimum Inhibitory Concentration (Table 1, EPI Conc. 10 μg/ml) | Levofloxacin MIC Against P. aeruginosa PAM1001 in Presence of Efflux Pump Inhibitor (EPI), Minimum Inhibitory Concentration (Table 1, EPI Conc. 40 μg/ml) | Levofloxacin MIC Against P. aeruginosa PAM1001 in Presence of Efflux Pump Inhibitor (EPI), Minimum Inhibitory Concentration [1] | Levofloxacin MIC Against P. aeruginosa PAM1001 in Presence of Efflux Pump Inhibitor (EPI), Minimum Inhibitory Concentration (Table 2, EPI Conc. 0 μg/ml) | Levofloxacin MIC Against P. aeruginosa PAM1001 in Presence of Efflux Pump Inhibitor (EPI), Minimum Inhibitory Concentration (Table 2, EPI Conc. 0.625 μg/ml) | Levofloxacin MIC Against P. aeruginosa PAM1001 in Presence of Efflux Pump Inhibitor (EPI), Minimum Inhibitory Concentration (Table 2, EPI Conc. 5 μg/ml) | Levofloxacin MIC Against P. aeruginosa PAM1001 in Presence of Efflux Pump Inhibitor (EPI), Minimum Inhibitory Concentration (Table 2, EPI Conc. 10 μg/ml) | Levofloxacin MIC Against P. aeruginosa PAM1001 in Presence of Efflux Pump Inhibitor (EPI), Minimum Inhibitory Concentration (Table 2, EPI Conc. 40 μg/ml) | Levofloxacin MIC Against P. aeruginosa PAM1001 in Presence of Efflux Pump Inhibitor (EPI), Minimum Inhibitory Concentration [2] | Levofloxacin MIC Against P. aeruginosa PAM1001 in Presence of Efflux Pump Inhibitor (EPI), Minimum Inhibitory Concentration (Table 3, EPI Conc. 0 μg/ml) | Levofloxacin MIC Against P. aeruginosa PAM1001 in Presence of Efflux Pump Inhibitor (EPI), Minimum Inhibitory Concentration (Table 3, EPI Conc. 0.625 μg/ml) | Levofloxacin MIC Against P. aeruginosa PAM1001 in Presence of Efflux Pump Inhibitor (EPI), Minimum Inhibitory Concentration (Table 3, EPI Conc. 5 μg/ml) | Levofloxacin MIC Against P. aeruginosa PAM1001 in Presence of Efflux Pump Inhibitor (EPI), Minimum Inhibitory Concentration (Table 3, EPI Conc. 10 μg/ml) | Levofloxacin MIC Against P. aeruginosa PAM1001 in Presence of Efflux Pump Inhibitor (EPI), Minimum Inhibitory Concentration (Table 3, EPI Conc. 40 μg/ml) | Levofloxacin MIC Against P. aeruginosa PAM1001 in Presence of Efflux Pump Inhibitor (EPI), Minimum Inhibitory Concentration [3] | Levofloxacin MIC Against P. aeruginosa PAM1001 in Presence of Efflux Pump Inhibitor (EPI), Minimum Inhibitory Concentration (Table 4, EPI Conc. 0 μg/ml) | Levofloxacin MIC Against P. aeruginosa PAM1001 in Presence of Efflux Pump Inhibitor (EPI), Minimum Inhibitory Concentration (Table 4, EPI Conc. 0.625 μg/ml) | further results
1 | D-Lysyl-β-N-(Cyclopropylmethyl)alanine Quinoline-3-amide Trifluoroacetate [Example 27] | 4 µg/mL | 4 µg/mL | 0.125 µg/mL | 0.125 µg/mL | 0.06 µg/mL | 0.125 µg/mL | 4 µg/mL | 4 µg/mL | 2 µg/mL | 2 µg/mL | 2 µg/mL | 2 µg/mL | 4 µg/mL | 4 µg/mL | 0.06 µg/mL | 0.03 µg/mL | 0.03 µg/mL | 0.03 µg/mL | 4 µg/mL | 4 µg/mL | Levofloxacin MIC Against P. aeruginosa PAM1001 in Presence of Efflux Pump Inhibitor (EPI), Minimum Inhibitory Concentration (Table 4, EPI Conc. 5 μg/ml): 2 µg/mL; Levofloxacin MIC Against P. aeruginosa PAM1001 in Presence of Efflux Pump Inhibitor (EPI), Minimum Inhibitory Concentration (Table 4, EPI Conc. 10 μg/ml): 2 µg/mL; Levofloxacin MIC Against P. aeruginosa PAM1001 in Presence of Efflux Pump Inhibitor (EPI), Minimum Inhibitory Concentration (Table 4, EPI Conc. 40 μg/ml): 1 µg/mL; Levofloxacin MIC Against P. aeruginosa PAM1001 in Presence of Efflux Pump Inhibitor (EPI), Minimum Inhibitory Concentration (Table 4, EPI Conc. […]): 4 µg/mL; Levofloxacin MIC Against P. aeruginosa PAM1001 in Presence of Efflux Pump Inhibitor (EPI), Minimum Inhibitory Concentration [4]: 1 µg/mL
2 | D-Ornithyl-β-(N-cyclohexylmethyl)alanine 2-naphthylamide [Compound 17 (Table 3)] | 4 µg/mL | 4 µg/mL | 0.06 µg/mL | 0.06 µg/mL | 0.015 µg/mL | 0.03 µg/mL | 4 µg/mL | 4 µg/mL | 4 µg/mL | 0.50 µg/mL | 0.015 µg/mL | 0.06 µg/mL | 4 µg/mL | 4 µg/mL | 2 µg/mL | 0.50 µg/mL | 0.125 µg/mL | 0.125 µg/mL | 4 µg/mL | 4 µg/mL | Levofloxacin MIC Against P. aeruginosa PAM1001 in Presence of Efflux Pump Inhibitor (EPI), Minimum Inhibitory Concentration (Table 1, EPI Conc. […]): 4 µg/mL; Levofloxacin MIC Against P. aeruginosa PAM1001 in Presence of Efflux Pump Inhibitor (EPI), Minimum Inhibitory Concentration (Table 2, EPI Conc. […]): 4 µg/mL; Levofloxacin MIC Against P. aeruginosa PAM1001 in Presence of Efflux Pump Inhibitor (EPI), Minimum Inhibitory Concentration (Table 3, EPI Conc. […]): 4 µg/mL; Levofloxacin MIC Against P. aeruginosa PAM1001 in Presence of Efflux Pump Inhibitor (EPI), Minimum Inhibitory Concentration (Table 4, EPI Conc. 5 μg/ml): 4 µg/mL; Levofloxacin MIC Against P. aeruginosa PAM1001 in Presence of Efflux Pump Inhibitor (EPI), Minimum Inhibitory Concentration (Table 4, EPI Conc. 10 μg/ml): 2 µg/mL; Levofloxacin MIC Against P. aeruginosa PAM1001 in Presence of Efflux Pump Inhibitor (EPI), Minimum Inhibitory Concentration (Table 4, EPI Conc. 40 μg/ml): 0.125 µg/mL; Levofloxacin MIC Against P. aeruginosa PAM1001 in Presence of Efflux Pump Inhibitor (EPI), Minimum Inhibitory Concentration (Table 4, EPI Conc. […]): 4 µg/mL; Levofloxacin MIC Against P. aeruginosa PAM1001 in Presence of Efflux Pump Inhibitor (EPI), Minimum Inhibitory Concentration [4]: 1 µg/mL
